Data reported in PubChem BioAssay AID1963423 (Molecular Pharmacology Branch, DTP, NCI, 2024).

System: 439559-082-T-J2-PDC complex spheroid growth
Assay: Anticancer human tumor 439559-082-T-J2-PDC patient-derived colon adenocarcinoma cell line growth inhibition [Asc]
Conditions: for IC50: curve of first compound; for viability, T/C: stronger effect = lower value; active = viability on the fitted dose curve at most 10% of control; inactive = the rest
Method in brief: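 Tumor cells were grown as complex spheroids with human endothelial cells (HUVEC) and human mesenchymal stem cells as stroma. Agents were tested alone and in combination, in half-log steps down from the clinical Cmax, or from 10 microM where Cmax was unknown.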

[1] = second compound 0.00316 µM, first compound 0.0316 µM
[2] = second compound 0.00316 µM, first compound 0.1 µM
[3] = second compound 0.01 µM, first compound 0.0316 µM
[4] = second compound 0.01 µM, first compound 0.1 µM
[5] = second compound 0.0316 µM, first compound 0.0316 µM
[6] = second compound 0.0316 µM, first compound 0.1 µM
[7] = second compound 0.1 µM, first compound 0.0316 µM
[8] = second compound 0.1 µM, first compound 0.1 µM
[9] = second compound 0.316 µM, first compound 0.0316 µM
[10] = second compound 0.316 µM, first compound 0.1 µM
[11] = second compound 1 µM, first compound 0.0316 µM
[12] = second compound 1 µM, first compound 0.1 µM
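Also: spheroids exposed to agents for 7 days starting day 3 after seeding.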
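For viability, T/C in this document: percent of DMSO vehicle control viability with 100% = vehicle.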

Cc1nc(N2CCC3(CC2)COC(C)C3N)c(CO)nc1Sc1ccnc(N)c1Cl (centres undefined) + CCN1C(C(=O)NC23CCC(C(=O)O)(CC2)CC3)C(c2cccc(Cl)c2F)C2(C(=O)Nc3cc(Cl)ccc32)C12CCCCC2
inactive: viability, T/C (second compound 0.03 µM, first compound 0.00949 µM) 109% | viability, T/C (second compound 0.03 µM, first compound 0.03 µM) 110% | viability, T/C (second compound 0.03 µM, first compound 0.0949 µM) 106% | viability, T/C (second compound 0.03 µM, first compound 0.3 µM) 91.6% | viability, T/C (second compound 0.03 µM, first compound 0.949 µM) 91.7% | viability, T/C (second compound 0.03 µM, first compound 3 µM) 80.3% | viability, T/C (second compound 0.0949 µM, first compound 0.00949 µM) 107% | viability, T/C (second compound 0.0949 µM, first compound 0.03 µM) 109% | viability, T/C (second compound 0.0949 µM, first compound 0.0949 µM) 114% | viability, T/C (second compound 0.0949 µM, first compound 0.3 µM) 93.7% | viability, T/C (second compound 0.0949 µM, first compound 0.949 µM) 86.9% | viability, T/C (second compound 0.0949 µM, first compound 3 µM) 86.1% | viability, T/C (second compound 0.3 µM, first compound 0.00949 µM) 106% | viability, T/C (second compound 0.3 µM, first compound 0.03 µM) 111% | viability, T/C (second compound 0.3 µM, first compound 0.0949 µM) 105% | viability, T/C (second compound 0.3 µM, first compound 0.3 µM) 87.8% | viability, T/C (second compound 0.3 µM, first compound 0.949 µM) 91.2% | viability, T/C (second compound 0.3 µM, first compound 3 µM) 81.2% | viability, T/C (second compound 0.949 µM, first compound 0.00949 µM) 103% | viability, T/C (second compound 0.949 µM, first compound 0.03 µM) 113% | viability, T/C (second compound 0.949 µM, first compound 0.0949 µM) 115% | viability, T/C (second compound 0.949 µM, first compound 0.3 µM) 93.5% | viability, T/C (second compound 0.949 µM, first compound 0.949 µM) 93.2% | viability, T/C (second compound 0.949 µM, first compound 3 µM) 82.2% | viability, T/C (second compound 3 µM, first compound 0.00949 µM) 89.5% | viability, T/C (second compound 3 µM, first compound 0.03 µM) 96% | viability, T/C (second compound 3 µM, first compound 0.0949 µM) 97.4% | viability, T/C (second compound 3 µM, first compound 0.3 µM) 87.8% | viability, T/C (second compound 3 µM, first compound 0.949 µM) 77.9% | viability, T/C (second compound 3 µM, first compound 3 µM) 82.7%
> 3 µM: IC50 (second compound 0.03 µM) | IC50 (second compound 0.0949 µM) | IC50 (second compound 0.3 µM) | IC50 (second compound 0.949 µM) | IC50 (second compound 3 µM)

Cn1ncnc1[C@H]1c2n[nH]c(=O)c3cc(F)cc(c23)N[C@@H]1c1ccc(F)cc1 + CNC(C)C(=O)NC1CN(S(=O)(=O)c2cccc(S(=O)(=O)N3CCC4CCC(C(=O)NC(c5ccccc5)c5ccccc5)N4C(=O)C(NC(=O)C(C)NC)C3)c2)CCC2CCC(C(=O)NC(c3ccccc3)c3ccccc3)N2C1=O
> 0.1 µM: IC50 (second compound 0.01 µM) | IC50 (second compound 0.0316 µM) | IC50 (second compound 0.1 µM) | IC50 (second compound 0.316 µM) | IC50 (second compound 1 µM)
< 0.000316 µM: IC50 (second compound 0.00316 µM)
inactive: viability, T/C (second compound 0.00316 µM, first compound 0.000316 µM) 46.7% | viability, T/C (second compound 0.00316 µM, first compound 0.001 µM) 41.6% | viability, T/C (second compound 0.00316 µM, first compound 0.00316 µM) 38.5% | viability, T/C (second compound 0.00316 µM, first compound 0.01 µM) 46.7% | viability, T/C [1] 56.8% | viability, T/C [2] 45% | viability, T/C (second compound 0.01 µM, first compound 0.000316 µM) 101% | viability, T/C (second compound 0.01 µM, first compound 0.001 µM) 101% | viability, T/C (second compound 0.01 µM, first compound 0.00316 µM) 105% | viability, T/C (second compound 0.01 µM, first compound 0.01 µM) 89% | viability, T/C [3] 95.2% | viability, T/C [4] 89.1% | viability, T/C (second compound 0.0316 µM, first compound 0.000316 µM) 102% | viability, T/C (second compound 0.0316 µM, first compound 0.001 µM) 94.8% | viability, T/C (second compound 0.0316 µM, first compound 0.00316 µM) 101% | viability, T/C (second compound 0.0316 µM, first compound 0.01 µM) 88.9% | viability, T/C [5] 104% | viability, T/C [6] 104% | viability, T/C (second compound 0.1 µM, first compound 0.000316 µM) 93.4% | viability, T/C (second compound 0.1 µM, first compound 0.001 µM) 101% | viability, T/C (second compound 0.1 µM, first compound 0.00316 µM) 97.2% | viability, T/C (second compound 0.1 µM, first compound 0.01 µM) 92.4% | viability, T/C [7] 103% | viability, T/C [8] 104% | viability, T/C (second compound 0.316 µM, first compound 0.000316 µM) 99.8% | viability, T/C (second compound 0.316 µM, first compound 0.001 µM) 93.5% | viability, T/C (second compound 0.316 µM, first compound 0.00316 µM) 93.1% | viability, T/C (second compound 0.316 µM, first compound 0.01 µM) 88.1% | viability, T/C [9] 97% | viability, T/C [10] 99.7% | viability, T/C (second compound 1 µM, first compound 0.000316 µM) 74.5% | viability, T/C (second compound 1 µM, first compound 0.001 µM) 72.2% | viability, T/C (second compound 1 µM, first compound 0.00316 µM) 79.5% | viability, T/C (second compound 1 µM, first compound 0.01 µM) 80.8% | viability, T/C [11] 87% | viability, T/C [12] 81.6%

O=C(c1cc(Cc2n[nH]c(=O)c3ccccc23)ccc1F)N1CCN(C(=O)C2CC2)CC1 + CNC(C)C(=O)NC1CN(S(=O)(=O)c2cccc(S(=O)(=O)N3CCC4CCC(C(=O)NC(c5ccccc5)c5ccccc5)N4C(=O)C(NC(=O)C(C)NC)C3)c2)CCC2CCC(C(=O)NC(c3ccccc3)c3ccccc3)N2C1=O
0.333 µM: IC50 (second compound 0.00316 µM)
> 10 µM: IC50 (second compound 0.01 µM) | IC50 (second compound 0.0316 µM) | IC50 (second compound 0.1 µM) | IC50 (second compound 0.316 µM) | IC50 (second compound 1 µM)
inactive: viability, T/C [1] 54.7% | viability, T/C [2] 47.2% | viability, T/C (second compound 0.00316 µM, first compound 0.316 µM) 49.1% | viability, T/C (second compound 0.00316 µM, first compound 1 µM) 49.9% | viability, T/C (second compound 0.00316 µM, first compound 3.16 µM) 40.7% | viability, T/C (second compound 0.00316 µM, first compound 10 µM) 28.4% | viability, T/C [3] 94.2% | viability, T/C [4] 86.3% | viability, T/C (second compound 0.01 µM, first compound 0.316 µM) 93.2% | viability, T/C (second compound 0.01 µM, first compound 1 µM) 96% | viability, T/C (second compound 0.01 µM, first compound 3.16 µM) 113% | viability, T/C (second compound 0.01 µM, first compound 10 µM) 104% | viability, T/C [5] 103% | viability, T/C [6] 96.2% | viability, T/C (second compound 0.0316 µM, first compound 0.316 µM) 108% | viability, T/C (second compound 0.0316 µM, first compound 1 µM) 99.6% | viability, T/C (second compound 0.0316 µM, first compound 3.16 µM) 101% | viability, T/C (second compound 0.0316 µM, first compound 10 µM) 89.8% | viability, T/C [7] 99.8% | viability, T/C [8] 101% | viability, T/C (second compound 0.1 µM, first compound 0.316 µM) 99.2% | viability, T/C (second compound 0.1 µM, first compound 1 µM) 96.5% | viability, T/C (second compound 0.1 µM, first compound 3.16 µM) 99.2% | viability, T/C (second compound 0.1 µM, first compound 10 µM) 102% | viability, T/C [9] 105% | viability, T/C [10] 103% | viability, T/C (second compound 0.316 µM, first compound 0.316 µM) 102% | viability, T/C (second compound 0.316 µM, first compound 1 µM) 94.8% | viability, T/C (second compound 0.316 µM, first compound 3.16 µM) 99% | viability, T/C (second compound 0.316 µM, first compound 10 µM) 91.1% | viability, T/C [11] 81.9% | viability, T/C [12] 78.3% | viability, T/C (second compound 1 µM, first compound 0.316 µM) 93.5% | viability, T/C (second compound 1 µM, first compound 1 µM) 85.1% | viability, T/C (second compound 1 µM, first compound 3.16 µM) 95.7% | viability, T/C (second compound 1 µM, first compound 10 µM) 65.4%
